Measurements as given in paper PMC8162360, “Total synthesis of biseokeaniamides A–C and late-stage electrochemically-enabled peptide analogue synthesis” (Chemical Science, 2020).
Like-named read-outs stand apart in the source and are kept apart here. Non-standard residues stand in square brackets, D forms with d. Residues, ends and D or L forms follow the SMILES beside them. *: point of attachment. NMeF = CN[C@@H](Cc1ccccc1)C(=O)O; NMeV = CN[C@H](C(=O)O)C(C)C; Butyryl = CCCC(=O)*; X1 = CN(Cc1cccs1)*

Assays:
[1] = cited from earlier work
Excerpt: Probing the electrochemical generation and reactivity of N,O-acetals | column: pKa (R–OH)[27,28] || The reactivity of the methanol-derived N,O-acetal 6a was examined using a Friedel–Crafts-type reaction with thiophene in the presence of TFA (2.0 equiv.), which serves to regenerate the N-acyliminium for nucleophilic attack. […] How ...

[2] = tested on: A549 cells (ATCC CCL-185); type: cell-based; settings: 72 h
Procedure: (§1) Evaluation of biological activity
(§2) Cell Culture of A549 and HeLa S3 Cells
(§3) 1. A549 cells (ATCC® CCL-185) were cultured at 37 °C with 5% CO2 in DMEM/F12 (Ham)
(§4) medium (Gibco, CAT#11330-032) supplemented with 10% fetal bovine serum (FBS) (Sigma-
(§5) 2. HeLa S3 cells were cultured at 37 °C with 5% CO2 in F-12K nutrient mixture, Kaighn's
(§6) modification medium (Gibco, CAT#21127-022) supplemented with 10% fetal bovine serum
(§7) (FBS) (Sigma-Aldrich, CAT#F9423).
(§8) 3. To subculture cells, media was aspirated and cell monolayers were washed once with dPBS
(§9) (Gibco), and then detached using Trypsin-EDTA (0.25%, Gibco CAT#25200114), followed
(§10) by neutralisation with growth media. Quantitation of cell number was obtained using the Life
(§11) Technologies Countess II automated cell counter.
(§12) MTT 72 Hour Viability Assay
(§13) 1. A549 and HeLa S3 cells were seeded at 600 cells/well in 40 µL into a Corning clear 384-
(§14) well plate (CAT# 3701) using the Biotek EL406, and cultured overnight.
(§15) 2. Cells were then treated with various concentrations of compounds for 72 h. 0.2% DMSO
(§16) and 25 µM Etoposide (Sigma-Aldrich) were used as controls.
(§17) 3. 10 µL of MTT reagent (ThermoFisher, diluted to 2.5 mg/mL in DPBS) was then added to
(§18) cells and incubated at 37 °C for 1.5 h.
4. Plates were then centrifuged at 800 × g for 5 min and the supernatant flicked off. 25 µL of […]
5. Absorbance was then read at 570 nm using the PerkinElmer EnVision Multimode plate […]

[3] = tested on: HeLa S3 cells; test: MTT 72 hour viability assay, HeLa S3 cells; type: cell-based
Procedure: as §1, §2, §3, §4, §5, §6, §7, §8, §9, §10, §11, §12, §13, §14, §15, §16, §17, §18
4. Plates were then centrifuged at 800 × g for 5 min and the supernatant flicked off. 25 µL of
isopropanol/HCl solution was then added to each well using the Biotek EL406 and the plates
5. Absorbance was then read at 570 nm using the PerkinElmer EnVision Multimode plate
6. Statistical Analysis: Results were normalised to the average blank value (media only
control), and then presented as a percentage of the control (0.2% DMSO (vehicle) treated cells)

[4] = pKa of the alcohol or carboxylic acid R-OH used in the electrolysis

| IC50 [2] | IC50 ([3]; 72 h) | SMILES | pKa (R–OH) [1, 4] | also measured |
| --- | --- | --- | --- | --- |
|  |  | O=C(O)C(Cl)(Cl)Cl [Cl3CCO] | 0.85 |  |
| 7.9 µM | 9.2 µM | C=CCCN(C)C(=O)[C@@H](NC(=O)[C@H](CC(C)C)NC(=O)[C@H](Cc1ccccc1)NC(C)=O)C(C)C [Compound 19] |  | cytotoxicity compared with natural products 1a-1c [3]: enhanced cytotoxicity in relation to the natural products |
|  |  | CO [Me, methanol] | 15.5 |  |
|  |  | OC(C(F)(F)F)C(F)(F)F [(CF3)2CH, hexafluoroisopropanol] | 9.3 |  |
|  |  | OCC(F)(F)F [CF3CH2, trifluoroethanol] |  | pKa (R–OH) [1]: 12.5 |
| 27.4 µM | 18.4 µM | CCCC(=O)N(C)[C@H](C(=O)N1CCC[C@H]1C(=O)N(C)[C@@H](Cc1ccccc1)C(=O)N[C@@H](CC(C)C)C(=O)N[C@H](C(=O)N(C)Cc1cccs1)C(C)C)C(C)C [Compound 21] (Butyryl-[NMeV]P[NMeF]LV-X1) |  | cytotoxicity compared with natural products 1a-1c ([3]; comparative HeLa cell viability assays, Fig. 1A, MTT, 72 h): enhanced cytotoxicity in relation to the natural products |
